Counter-ions that a name gives are not always drawn.

In one experiment the test system is HMEC-GFP cells. The experiment in a line: Scratch wound closure assay, HMEC-GFP. Format: cell-based, human. Conditions: for IC50: wound closure after 24 h, 10% FCS, tested 3.125 μM to 100 μM; for activity on HMEC-GFP wound closure: structure-activity relationship analysis. An excerpt:
In order to adapt the endothelial scratch wounding assay to the constraints of high throughput screening, we decided to use an endothelial cell line rather than primary cultures for the sake of reproducibility. Since angiogenesis is triggered by capillary endothelial cells, we selected the HMEC-1 cell line which consists of human dermal microvascular endothelial cells stably expressing SV40 […] antigen. We infected this cell line with GFP-encoding retroviral particles and selected one clone (thereafter named HMEC-GFP) that presented a high level of fluorescence and a strong proliferation rate (doubling time in the presence of serum: 22 h). We controlled that GFP expression was stable over at least 50 passages and that these cells still expressed endothelial markers such as VE-cadherin and CD31. In a standard assay, HMEC-GFP cells were grown until confluence in 96-well plates in the presence of serum, scratched with the multi-tip dispenser of the HTS automat, gently rinsed twice to eliminate detached cells and cell debris that could liberate inflammatory and potentially angiogenic cytokines, and incubated for 24 h in the presence of serum and the compounds to be tested. Each well was photographed at time 0 h (after wounding) and 24 h under a motorized epifluorescence microscope and the digitized images were analyzed using Image J to determine the percentage of wound closure (Figure 1A, 1B). Under our standard conditions, the closure rate was 72 ± 4% in the positive controls and 27 ± 4.% in the negative controls.
(§1) Confluent cell monolayers were wounded with a plastic pipet tip, washed gently with phosphate buffer saline (PBS) and treated with complete media containing molecules, as indicated. Cells were placed at 37°C into the incubator and photographed at indicated times. Quantitation of closure of the monolayer was performed using the NIH Image J program (http://rsbweb.nih.gov/ij/). Results are expressed as percentage of wound closure at t = 24 h as compared to the initial wound at t = 0 h.

The subject of the next experiment is 3T3-GFP cells. The experiment in a line: Scratch wound closure assay, 3T3-GFP. Format: cell-based. Conditions: wound closure after 24 h, 10% FCS, tested 3.125 μM to 100 μM.
Excerpt: Using this assay, we screened the academic library of the University of Grenoble, which is composed of 1360 original molecules. Setting the threshold of significant responses at 75% of the maximal inhibition, we identified 80 inhibitory molecules. At this stage, we reasoned that molecules that would affect the cytoskeleton dynamics or the adhesion properties of any cell type would be positive in this assay but would not represent good candidates for further development. We thus decided to perform a secondary counterscreen of the first 80 selected compounds on GFP-expressing 3T3 fibroblasts (3T3-GFP) using the same scratch assay. We then focused our interest on the 5 molecules that inhibited more strongly HMEC-GFP than 3T3-GFP wound healing. […] We synthesized a series of 30 analogs and tested them at various concentrations both on HMEC-GFP and 3T3-GFP cells. […] Dansyl and naphthalimide aromatic groups, found in COB223 and COB227 respectively, appeared very efficient. The presence of the diaminomethyl group on dansyl is critical for the activity of COB223 as shown by the lower efficiency of COB235 (IC50 is 8 times higher than that of COB223). COB223 and COB227 contain a tert-butyloxycarbonyl function (BOC group) as a second hydrophobic group. Replacement of BOC by an amino group decreased the efficiency and the specificity (compare 05-102-L-B09 vs 05-06-L-D03, or COB227 vs COB228).
as §1

For `CC(C)(C)OC(=O)NCCCN1CCN(CCCN2C(=O)c3cccc4cc([N+](=O)[O-])cc(c34)C2=O)CC1` [COB280, N-{3-[4-(3-tert-Butoxycarbonylaminopropyl)piperazin-1-yl]propyl}-3-nitro-1,8-naphthalimide], the IC50 in the experiment on HMEC-GFP cells (Homo sapiens) is 25 µM; in the experiment with 3T3-GFP cells it was > 100 µM. For `NCCN` [Ethylene diamine, 1,2-ethylenediamine, reference compound], in the experiment with HMEC-GFP cells, the “activity on HMEC-GFP wound closure” value was “inactive” and the concentration for half-maximal inhibition (IC50) is > 100 µM.

Regarding `NCCCN1CCN(CCCN2C(=O)c3cccc4cccc(c34)C2=O)CC1` [COB228, N-{3-[4-(3-Aminopropyl)piperazin-1-yl]propyl}-1,8-naphthalimide hydrochloride], the figures for the IC50 in the experiment on HMEC-GFP cells (Homo sapiens) and with 3T3-GFP cells were 25 µM and 40 µM, respectively. `CN(C)c1ccc2c3c(cccc13)C(=O)N(CCCN1CCN(CCCNC(=O)OC(C)(C)C)CC1)C2=O` [COB274, N-{3-[4-(3-tert-Butoxycarbonylaminopropyl)piperazin-1-yl]propyl}-4-dimethylamino-1,8-naphthalimide]: the IC50 with HMEC-GFP cells (Homo sapiens) is > 100 µM. Still for that read-out and setting: the value for `CN(C)c1ccc2c3c(cccc13)C(=O)N(CCCNC(=O)OC(C)(C)C)C2=O` [COB276, N-(3-(tert-Butoxycarbonylamino)propyl)-4-dimethylamino-1,8-naphthalimide] was > 100 µM. Consider `NCCCCCCNS(=O)(=O)c1cccc2c(Cl)cccc12` [Compound W7, reference compound], for which the 50% inhibitory concentration (IC50) with HMEC-GFP cells (Homo sapiens) and in the experiment on 3T3-GFP cells was 35 µM throughout.

For `NCCCCN` [putrescine, 1,4-diaminobutane, reference compound], the IC50 with HMEC-GFP cells (Homo sapiens) is > 100 µM. In the experiment on HMEC-GFP cells, the “activity on HMEC-GFP wound closure” value is “inactive”. As for `NCCCN1C(=O)c2cccc3cc([N+](=O)[O-])cc(c23)C1=O` [COB277, N-(3-Aminopropyl)-3-nitro-1,8-naphtalimide hydrochloride], the IC50 with HMEC-GFP cells (Homo sapiens) is > 100 µM. Turning to `CC(C)(C)OC(=O)NCCCN1CCN(CCCNS(=O)(=O)c2cccc3ccccc23)CC1` [COB235, tert-Butyl 3-(4-(3-(naphthalene-1-sulfonamido)propyl)piperazin-1-yl) propylcarbamate], the results for the half-maximal inhibitory concentration (IC50) in the experiment with HMEC-GFP cells (Homo sapiens) and with 3T3-GFP cells were 40 µM and > 50 µM, respectively. With `CN(C)CCCNS(=O)(=O)c1cccc2c(N(C)C)cccc12` [COB221, 5-(Dimethylamino)-N-[3-(dimethylamino)propyl]naphthalene-1-sulfonamide], the half-inhibitory concentration (IC50) came to 20 µM in the experiment on HMEC-GFP cells (Homo sapiens) and 150 µM with 3T3-GFP cells.

`CN(C)c1cccc2c(S(=O)(=O)NCCOCCOCCNC(=O)OC(C)(C)C)cccc12` [COB296, tert-Butyl N-(2-[2-{2-(5-(dimethylamino)naphthalene-1-sulfonamido)ethoxy}ethoxy]ethyl) carbamate] registered an IC50 with HMEC-GFP cells (Homo sapiens) of 5 µM. Turning to `CC(C)(C)OC(=O)NCCCN1C(=O)c2cccc3cccc(c23)C1=O` [COB283, N-(3-(tert-Butoxycarbonylamino)propyl)-1,8-naphthalimide], the IC50 with HMEC-GFP cells (Homo sapiens) is > 100 µM. As for `NCCCN1C(=O)c2cccc3cccc(c23)C1=O` [COB226, N-(3-Aminopropyl)-1,8-naphthalimide hydrochloride], the IC50 in the experiment on HMEC-GFP cells (Homo sapiens) and with 3T3-GFP cells was > 50 µM in each case. Regarding `CN(C)c1cccc2c(S(=O)(=O)NCCOCCO)cccc12` [COB225, 2-{2-[5-(Dimethylamino)naphthalene-1-sulfonamido]ethoxy}ethan-1-ol], the concentration for half-maximal inhibition (IC50) in the experiment on HMEC-GFP cells (Homo sapiens) and with 3T3-GFP cells was > 50 µM throughout. For “N-(5-(Dimethylamino)naphthalene-1-sulfonamido)-1,3-diamino-propane [Compound 05-06-L-D03]”, the IC50 in the experiment on HMEC-GFP cells is 25 µM; in the experiment with 3T3-GFP cells, 200 µM. With `CN(C)c1ccc2c3c(cccc13)C(=O)N(CCCNCCCNC(=O)OC(C)(C)C)C2=O` [COB275, N-[3-((3-tert-Butoxycarbonylaminopropyl)amino)propyl]-4-dimethylamino-1,8-naphthalimide], the 50% inhibitory concentration (IC50) is 12.5 µM in the experiment with HMEC-GFP cells (Homo sapiens) and 50 µM in the experiment on 3T3-GFP cells. As for `CN(C)c1cccc2c(S(=O)(=O)NCCCO)cccc12` [COB220, 5-(Dimethylamino)-N-[3-hydroxypropyl]naphthalene-1-sulfonamide], the half-inhibitory concentration (IC50) with HMEC-GFP cells (Homo sapiens) was 40 µM; with 3T3-GFP cells, > 50 µM. In the case of `CC(C)(C)OC(=O)NCCCNCCCN1C(=O)c2cccc3cc([N+](=O)[O-])cc(c23)C1=O` [COB281, N-[3-((3-tert-Butoxycarbonylaminopropyl)amino)propyl]-3-nitro-1,8-naphthalimide], the concentration for half-maximal inhibition (IC50) is 25 µM in the experiment on HMEC-GFP cells (Homo sapiens) and > 50 µM with 3T3-GFP cells.

For “N-(5-(Dimethylamino)naphthalene-1-sulfonamido)-N'-(tert-butoxycarbonyl)-1,3-diamino-propane [Compound 05-102-B09]”, the IC50 worked out at 18 µM in the experiment with HMEC-GFP cells and 150 µM in the experiment on 3T3-GFP cells. With `NCCCNCCCCNCCCN` [spermine, reference compound], the “activity on HMEC-GFP wound closure” value in the experiment on HMEC-GFP cells is “inactive”. For the molecule `CC(C)(C)OC(=O)NCCCN1C(=O)c2cccc3cc([N+](=O)[O-])cc(c23)C1=O` [COB282, N-(3-(tert-Butoxycarbonylamino)propyl)-3-nitro-1,8-naphthalimide], the IC50 in the experiment with HMEC-GFP cells (Homo sapiens) was > 100 µM. “1,4-bis[3-(5-(Dimethylamino)naphthalene-1-sulfonamido)propylamino]piperazine [COB222]”: the IC50 in the experiment with HMEC-GFP cells and in the experiment with 3T3-GFP cells was > 50 µM in each case. Consider `NCCCN` [1,3-diaminopropane, reference compound], for which, in the experiment on HMEC-GFP cells, the “activity on HMEC-GFP wound closure” value is “inactive” and the 50% inhibitory concentration (IC50) was > 100 µM. In the case of `Cc1ccc(S(=O)(=O)NCCCN2CCN(CCCNC(=O)OC(C)(C)C)CC2)cc1` [COB236, tert-Butyl 3-(4-(3-(4-methylphenylsulfonamido)propyl)piperazin-1-yl) propylcarbamate], the concentration for half-maximal inhibition (IC50) in the experiment with HMEC-GFP cells (Homo sapiens) and in the experiment with 3T3-GFP cells was > 50 µM in each case. For `CC(C)(C)OC(=O)NCCCN1CCN(CCCNC(=O)c2ccccc2)CC1` [COB237, tert-Butyl 3-(4-(3-phenylamidopropyl)piperazin-1-yl)propylcarbamate], the IC50 with HMEC-GFP cells (Homo sapiens) and with 3T3-GFP cells was > 50 µM each time. Turning to `CC(C)(C)OC(=O)NCCCN1CCN(CCCNC(=O)OCc2ccc([N+](=O)[O-])cc2)CC1` [COB238, 4-Nitrobenzyl N-[3-(4-{3-[(tert-butoxycarbonyl)amino]propyl}piperazin-1-yl)propyl] carbamate], the IC50 was 20 µM in the experiment on HMEC-GFP cells (Homo sapiens) and > 50 µM in the experiment with 3T3-GFP cells.

Turning to `CN(C)c1cccc2c(S(=O)(=O)NCCCCCN)cccc12` [dansylcadaverine, monodansylcadaverine, reference compound], the IC50 in the experiment with HMEC-GFP cells (Homo sapiens) and in the experiment with 3T3-GFP cells was > 50 µM in each case. Also, the “activity on HMEC-GFP wound closure” value in the experiment on HMEC-GFP cells is “inactive”.

Take `CN(C)c1cccc2c(S(=O)(=O)N3CCN(CCOCCO)CC3)cccc12` [COB224, 2-(2-{4-[5-(Dimethylamino)naphthalene-1-sulfonyl]piperazin-1-yl}ethoxy)ethan-1-ol]: the IC50 with HMEC-GFP cells (Homo sapiens) and in the experiment with 3T3-GFP cells was > 50 µM each time. For the molecule `O=C1c2cccc3cc([N+](=O)[O-])cc(c23)C(=O)N1CCCNCCCN1C(=O)c2cccc3cc([N+](=O)[O-])cc(c23)C1=O` [COB278, Bis-[(3-nitro-1,8-naphthalimido)propyl]amine], the IC50 is 12.5 µM in the experiment on HMEC-GFP cells (Homo sapiens) and 25 µM with 3T3-GFP cells.

A word on the IC50: it is the concentration at which inhibition is half-maximal. A high value points to a need for much substance.

For the origin of these results see PMC4467156, “A new chemical inhibitor of angiogenesis and tumorigenesis that targets the VEGF signaling pathway upstream of Ras” (Oncotarget, 2015).
